Laboratory results taken from patent publication US6559133B2, “Use of flavone 8-acetic acid in vascular and cardiovascular interventions and acute coronary syndromes” (priority 2000, dated 2003).

Legend:
[1] = tested on: deeply injured porcine carotid artery; experiment: Platelet and fibrin(ogen) deposition and mural thrombus after deep arterial injury by balloon angioplasty; format: in vivo, pig
Description: (§1) Twenty normal pigs of Babcock 4-way cross stock (a mixture of Landrace, Yorkshire, Hampshire, and Durock breeds) approximately 4 months old with a mean weight of 40±1 kg (approximately 1 m^2 body surface area) (P. L. Altman & D. S. Dittmer, “Metabolism” in Biological Handbooks (Federation of American Societies for Experimental Biology, Bethesda, Md., 1968), pp. 346-348), were obtained from local farmers. […] Loading dose and maintenance infusion were calculated based on preliminary pharmacokinetic experiments in pigs.
The model of deep arterial injury in the porcine carotid artery has been described in detail previously (P. M. Steele et al., “Balloon Angioplasty: Natural History of the Pathophysiologic Response to Injury in a Pig Model,” Cir. Res. 57: 105-112 (1985); M. Heras et al., “Hirudin, Heparin, and Placebo During Deep Arterial Injury in the Pig. The in Vivo Role of Thrombin in Platelet-Mediated Thrombosis,” Circulation 82: 1476-1484 (1990); J. Y. T. Lam et al., “Is Vasospasm Related to Platelet Deposition? Relationship in a Porcine Preparation of Arterial Injury in Vivo,” Circulation 75: 243-248 (1987)). Autologous platelets were labeled with […] of ^111Indium-tropolone and reinjected together with […] of ^125Iodine-labeled porcine fibrinogen on the day prior to the procedure M. Heras et al., “Hirudin, Heparin, and Placebo During Deep Arterial Injury in the Pig. The in Vivo Role of Thrombin in Platelet-Mediated Thrombosis,” Circulation 82: 1476-1484 (1990); J. Y. T. Lam et al., “Is Vasospasm Related to Platelet Deposition? Relationship in a Porcine Preparation of Arterial Injury in Vivo,” Circulation 75: 243-248 (1987); J. Mruk et al., “Does Anti-Thrombotic Therapy Influence Residual Thrombus After Thrombolysis of Platelet-Rich Thrombus?,” Circulation 93: 792-799 (1996)). On the day of surgery, the pigs were sedated with 1 g intramuscular ketamine (Ketaset, Bristol Laboratories, Syracuse, N.Y.), intubated and mechanically ventilated with room air (Harvard respirator, Harvard Apparatus, South Natick, Mass.). Anesthesia was maintained with a continuous infusion of etomidate (Abbott Laboratories, North Chicago, Ill.) 40 mg/l, fentanyl (Elkins-Sinn, Inc., Cherry Hill, N.J.) 10 mg/l, and ketamine 1,000 mg/l, at about 5 ml/minute. The ECG and intra-arterial pressure were continuously monitored throughout the procedure.
The left femoral vein and artery and the right femoral vein were dissected. A 9 F sheath was placed in the left femoral artery, and 14 gauge angiocaths were inserted in the left and right femoral veins. […] All the lines for blood sampling were continuously flushed with 0.9% saline. […]

[2] = tested on: porcine common carotid arteries; experiment: Vasoconstriction immediately distal to the dilatation site, from carotid angiograms; format: in vivo, pig; conditions: mean±SEM; p<0.001 vs placebo
Description: An 8 mm×3 cm polyethylene angioplasty catheter (Blue Max, Medi-tech, Watertown, Mass.) was advanced under fluoroscopic guidance to the left and then to the right common carotid arteries for arterial dilatation. Angioplasty was performed 30 minutes after starting treatment, between the first and third cervical vertebrae, using a standardized procedure (5 inflations of 30 seconds duration at 7 atmospheres, with 60 seconds between inflations). Carotid angiography was performed by injecting 6 ml of ionic contrast material (Renografin 76, Squibb, Princeton, N.J.) just prior to carotid dilatation, using a catheter (8 F) with a metal ring of known dimension (Cordis Corporation, Miami, Fla.). Spot films were also taken during balloon dilatation. […]
The severity of localized vasoconstriction was determined immediately distal to the dilatation site from angiograms of the common carotid arteries obtained before and after the dilatation procedure. Computer-assisted planimetry was used to measure the mean maximal narrowing in lumen diameter before and after the procedure, expressed as a percentage of the respective arterial dimension before dilatation (J. Y. T. Lam et al., “Is Vasospasm Related to Platelet Deposition? Relationship in a Porcine Preparation of Arterial Injury in Vivo,” Circulation 75: 243-248 (1987)).

[3] = FAA pharmacokinetics and plasma levels in pigs (HPLC); format: in vivo, pig
Description: as §1
(§2) All blood samples were collected with the 2-syringe technique (0.13 M trisodium citrate as anticoagulant; anticoagulant:blood=1:10). […] Platelet count, hematocrit, aPTT, and fibrinogen were determined using standard laboratory methods (Mayo Clinic, Clinical Laboratories). […] Assays were performed as a single batch. The method of determination of FAA in plasma was that of L. Malspeis (personal communication). Briefly, plasma (0.25-0.50 ml) was diluted to 1 ml with 0.5 ml of 0.5 M sodium acetate (pH 3.0) and normal saline. After addition of diethyl ether (4 ml) tubes were shaken on a mechanical shaker for 15 minutes. Following low speed centrifugation, the ether phase was evaporated to dryness under a stream of nitrogen and the residue dissolved in mobile solvent prior to HPLC analysis. Samples were analyzed by reversed-phase HPLC on an IBM C18 (10 micron) column with a mobile solvent of methanol/water mixture. Detection was by UV absorbance at 254 nm. Standard curves were prepared by adding known amounts of FAA to blood blank plasma and analyzing as described above.
The intravenous bolus and continuous infusion doses to maintain a plasma concentration of 500 μg/ml calculated from these values, were 5.5 gm/m^2 and 140 mg/min/m^2, respectively.

[4] = Laboratory tests: aPTT and ear bleeding time; format: in vivo, pig
Description: The left femoral vein and artery and the right femoral vein were dissected. A 9 F sheath was placed in the left femoral artery, and 14 gauge angiocaths were inserted in the left and right femoral veins. […] All the lines for blood sampling were continuously flushed with 0.9% saline.
as §2

[5] = tested on: human platelet-rich plasma; conditions: cited from earlier work
[6] = tested on: solid tumors in the mouse; conditions: mice; cited from earlier work

O=C(O)Cc1cccc2c(=O)cc(-c3ccccc3)oc12 [FAA, flavone-8-acetic acid]
Fibrin(ogen) deposition ([1]; deeply injured segments, mean±SEM, p=0.08 vs placebo): 40±8 ×10^12 molecules/cm^2 | Incidence of very small mural thrombi, treated pigs ([1]; per animal, p=0.005, large thrombi in all placebo pigs): 40% | Incidence of very small thrombi, deeply injured segments ([1]; per deeply injured segment, placebo 85% large thrombi): 30% | Platelet deposition in deeply injured segments ([1]; pigs, FAA bolus 5.5 g/m^2 then infusion 0.14 g/m^2/minute, mean±SEM, p=0.001 vs placebo): 13±3 ×10^6/cm^2 | Vasoconstriction immediately distal to the area of dilatation [2]: 15±3% | concentration at 30 min ([3]; Babcock 4-way cross (Landrace, Yorkshire, Hampshire, Durock), pig, plasma, intravenous, 30 minutes after starting bolus 5.5 g/m^2 plus infusion 0.14 g/m^2/minute): 515 ± 23 µg/mL | Plasma level of FAA at the end of the procedure ([3]; bolus 5.5 g/m^2 plus infusion 0.14 g/m^2/minute): 575 ± 36 µg/mL | half-life ([3]; pig, plasma, two animals, intravenous bolus 1 gm/m^2, one compartment open model): 27.9 min | Plasma clearance ([3]; two animals, intravenous bolus 1 gm/m^2, one compartment open model): 279 ml/min/m^2 | Bleeding time after FAA in 4 of the animals ([4]; 4 of 5 animals, 210 seconds = 2 standard deviations above the mean laboratory value): more than 210 seconds | Bleeding time after FAA ([4]; 5 animals, 30 minutes after starting infusion, before FAA 157±29 seconds): 522 ± 123 s | Ristocetin-induced platelet aggregation (vWF-GP Ibα-dependent) ([5]; FAA administered to patients with cancer): inhibited | Aggregation induced by ADP, collagen, arachidonic acid and adrenalin ([5]; ex vivo and in vitro, human platelet-rich plasma): not inhibited | Plasma ristocetin cofactor activity ([5]; human): unchanged | Implantation of solid tumors [6]: inhibits implantation of solid tumors in mice
